Reference: article PMC4654502, “Early Gelatinase Activity Is Not a Determinant of Long-Term Recovery after Traumatic Brain Injury in the Immature Mouse” (PLoS ONE, 2015)

Tests used:
Type in all cases: in vivo, male C57Bl/6J mice
[1] = tested on: controlled cortical impact TBI at p21; assay: Open field test at adulthood after TBI at p21; details: 25 mg/kg s.c. at 2, 4, 24, 48 h post-injury; tested ~2 months post-injury
Method: (§1) The controlled cortical impact model of TBI was used as previously described. TBI to the p21 mouse approximates a toddler-aged child, based upon the structural, biochemical and behavioral characteristics of this age. Pups were anaesthetized with 1.25% 2,2,2-tribromoethanol (Avertin; Sigma-Aldrich, St. Louis, MO) in isotonic saline (i.p. bolus at 0.02 mL/g body weight). After craniotomy, mice were subjected to a controlled cortical impact at 4.5 m/s velocity and 1.73 mm depth of penetration, for a sustained depression of 150 ms, using a 3.0 mm convex impactor tip. Mice were maintained on a water-circulating heating pad throughout surgery and recovery. Following impact, the scalp was closed with sutures and each animal administered 0.5 ml of isotonic saline subcutaneously (s.c.) to prevent post-operative dehydration. Sham-operated mice underwent identical surgical procedures, including craniotomy, without receiving the cortical impact. All mice were closely monitored for 1–2 hours post-surgery until return of the righting reflex and full mobilization. Mice were then returned to group-housing, and weighed post-surgery at days 1, 3, and weekly thereafter till the end of the study.
The treatment regime was based upon several considerations. […]
Exploratory behaviors were assessed over a 10 min session in an automated open field arena (40.6 cm x 40.6 cm; Kinder Scientific, Poway, CA). […]

[2] = tested on: controlled cortical impact TBI at p21; assay: Elevated plus maze at adulthood after TBI at p21; details: 25 mg/kg s.c. at 2, 4, 24, 48 h post-injury; tested ~2 months post-injury
Method: as §1, with “Mice were then returned to group-housing, and weighed post-surgery at days 1, 3, and weekly thereafter till the end of the study.” left out
The elevated plus maze (Kinder Scientific, Poway, CA) assesses anxiety based upon the natural tendency of rodents to avoid the open arms in preference for enclosed areas. […] Times spent in the open versus closed arms was assessed as previously described.

[3] = tested on: controlled cortical impact TBI at p21; assay: Morris water maze at adulthood after TBI at p21; details: 25 mg/kg s.c. at 2, 4, 24, 48 h post-injury
Method: as §1
The treatment regime was based upon several considerations. […] Thirdly, we limited treatment to a period of 48 h post-injury in order to minimize potential off-target effects on ongoing brain development processes at this time, given the known roles that these gelatinases play in postnatal synaptic maturation. For acute studies (gelatin zymography and histology) animals were euthanized at 4 hours and for in situ zymography, they were euthanized 1 hour after the last injection. For long-term studies (behavioral and cognitive assessments and histology) animals were euthanized at ~2 months post-injury. Euthanasia was by overdose with 2.5% Avertin i.p. followed by decapitation or cardiac transperfusion as described below.
Mice were randomized for behavior testing and all behavior testing was performed by individuals blinded to injury and treatment. Behavioral and cognitive testing of brain injured mice and sham controls commenced at 2 months post-injury (~ 3 months of age; n = 15/group). An extensive battery of behavioral assessments was performed in the following order: open field, rotarod, elevated plus maze, three-chamber social task, resident-intruder, and Morris water maze (MWM). […]
The MWM was used to assess spatial learning and memory as previously described, using a 140 cm-diameter circular pool filled with opaque water (22°C). […] Movements were tracked with an overhead mounted video camera interfaced with Noldus EthoVision software (Noldus IT, Tacoma, WA), for quantification of the cumulative distance to and latency to locate the platform, as well as swim velocity (cm/s). […]

[4] = tested on: controlled cortical impact TBI at p21; assay: Three-chamber social approach task at adulthood after TBI at p21; details: 25 mg/kg s.c. at 2, 4, 24, 48 h post-injury
Method: as §1, with “study. […]” for “study.”
The three-chamber paradigm allows for the evaluation of social affiliation and social recognition in mice. […] Data were expressed as time spent in each chamber (% of total time).

[5] = tested on: controlled cortical impact TBI at p21; assay: Acute cell death (TUNEL, activated caspase-3) at 48 h after TBI at p21; details: 48 h post-injury; 25 mg/kg s.c.
Method: as §1, with “Sham-operated mice underwent identical surgical procedures, including craniotomy, without receiving the cortical impact.” left out, “Mice were then returned to group-housing, and weighed post-surgery at days 1, 3, and weekly thereafter till the end of the study.” left out
Brain injured animals and sham controls were euthanized at 2 d post-injury. Dying cells were detected by double-labeling for terminal deoxynucleotidyl transferase-mediated dUTP nick 3’-end labeling (TUNEL) in combination with immunofluorescence for activated (cleaved) caspase-3, a hallmark of apoptosis. […] Immuno-positive cells with DAPI-positive nuclei were counted using Metamorph analysis software (Molecular Devices, Sunnyvale, CA).

[6] = Body weight after surgery at p21; details: 25 mg/kg s.c. at 2, 4, 24, 48 h post-injury or sham-operation
Method: as §1

O=S(=O)(CC1CS1)c1ccc(Oc2ccc(O)cc2)cc1 (stereo not drawn) [p-OH SB-3CT]
injury-induced hyperactivity (total distance traveled, open field) [1]: did not ameliorate this hyperactivity
percentage time spent in the center of the open field (anxiety-like behavior) [1]: neither TBI nor p-OH SB-3CT treatment affected this measure
time spent in the open arms of the elevated plus maze [2]: not affected by either TBI or p-OH SB-3CT treatment
MWM probe trials, effect of injury on spatial memory retention ([3]; four probe trials): not rescued by acute inhibition of gelatinases with p-OH SB-3CT
MWM cumulative distance to the target, visible and hidden sessions ([3]; tested at adulthood): no effect of p-OH SB-3CT treatment
MWM latency to reach the platform, visible and hidden platform sessions ([3]; tested at adulthood): did not modify this injury-related behavior
MWM swim velocity during visible platform trials ([3]; tested at adulthood): not influenced
three-chamber task stage 2, preference for sociability ([4]; groups = injury or drug treatment): no overall differences between groups
three-chamber task stage 3, lack of preference for social novelty after TBI ([4]; tested at adulthood): not rescued by p-OH SB-3CT
cell death by TUNEL staining compared to vehicle-treated controls [5]: A similar degree of cell death
cell death by activated caspase-3 compared to vehicle-treated controls [5]: A similar degree of cell death
animal weight over development [6]: no differences between treatment or injury groups
